In patent publication US20240148425A1, “COSMETIC COMPOSITION INTENDED FOR THE TREATMENT OF SKIN HYPERPIGMENTATION AND TREATMENT METHOD USING SAID COMPOSITION” (priority 2021, published 2024):

Key:
[1] = test system: actinic lentigines on the back of hands; conditions: cooling cycle of 3 to 5 seconds; biopsies 3 weeks after the treatment; cited from earlier work
skin pigmentation = conditions: brief 5-second cooling by atomizing liquid nitrogen at −196° C., margin 1 to 5 mm beyond the wound; cited from earlier work
[2] = test system: IL-1β marker in keratinocytes; assay: IL-1β irritation marker in keratinocytes after cryogenic gas sequences; assay type: cell-based; conditions: +14° C. with 4 successive oscillations vs subzero dose (EC16, −16° C.), same level of keratinocyte viability
From the text: Finally, on the other constituent cells of the epidermis (keratinocytes), experiments have shown that oscillations within an above-zero temperature range caused a lesser effect on certain irritation markers compared to the application of a single cryogenic gas within a subzero temperature range while causing an identical reduction in the viability of the keratinocytes (see FIG. 3). […] Likewise, since the irritation is directly related to the mortality induced by keratinocytes, it could have been thought that for an identical reduction in viability, the irritation would be identical.
FIG. 3 is a graph showing the variation over time of the (IL-1β) marker of the irritation for keratinocytes subjected to two sequences making it possible to achieve the same level of viability, a sequence (EC16) located in a subzero temperature range (−16° C.) and the other sequence (EC14) in an above-zero temperature range (+14° C.).
The development of the invention has given rise to numerous experiments relating to the optimization of atomization sequences. These sequences were tested on cell culture models in order to determine, in particular, their incidence on the cell viability of the melanocytes and keratinocytes. The main markers of irritation were also measured.

keratinocytes = assay: viability of keratinocytes by protein assay; assay type: cell-based; conditions: certain temperatures, especially +05° C.; patent attributes it to quiescence bias
From the text: Other tests conducted within the scope of the development of the invention have shown that an experiment bias existed in the measurement of the viability of the keratinocytes by protein assay.

Protocol for melanocytes: By way of example, when the viability of the melanocytes is compared between the application of a dose of atomized cryogenic gas making it possible to reach a target temperature of −10° C. (sequence referenced EC-10) on the epidermis from its normal starting temperature (34° C.) in an environment at room temperature (23° C.), and the application of a dose making it possible to reach a temperature of 0° C.
Therefore, experiments (cell cultures-in vitro) were conducted in the context of the invention to determine the effects of different temperatures (+10, +5, 0, −5, −10, −15 and 16° C.) on the mortality of the melanocytes. […] A control group of cells was tested at +23° C. After 24 h of treatment, the cell mortality was quantified by assaying the expression of the proteins (see FIG. 1).

| SMILES | skin pigmentation in biopsies [1] | pigment change of skin (skin pigmentation) | irritant effect (IL-1β marker) [2] | viability of the keratinocytes by protein assay (keratinocytes) | decrease of viability of the melanocytes relative to the control group (melanocytes) [%] | reduction of the viability of the melanocytes (melanocytes) | mortality rate of melanocytes versus control group (melanocytes; EC+10 sequence (+10° C.), control at +23° C.) | viability of the melanocytes, sequence EC-10 (−10° C.) compared with EC00 (0° C.) (melanocytes; EC-10 vs EC00, start 34° C., room temperature 23° C.) |
| --- | --- | --- | --- | --- | --- | --- | --- | --- |
| N#N [liquid nitrogen] | reduces skin pigmentation | hypopigmentation persists |  |  |  |  |  |  |
| CC(F)F [cryogenic gas, 1,1-difluoroethane] |  |  | less than that observed with a dose making it possible to achieve subzero temperatures | a reduction in the viability of the keratinocytes | 40 | about 40% | very different from that obtained for the control group | remains the same |
